These are literature values, as cited in the PKSmart pharmacokinetics tables (Seal et al. 2025).

As a reminder, the Vd is the apparent volume that relates the amount in the body to the concentration in plasma or blood. What is called clearance is the volume of plasma or blood freed of the substance per unit of time. The fraction unbound is the share of the substance not bound to proteins or other matrix.

Data set [1] is described as follows: Lombardo et al. 2013, J Clin Pharmacol 53:178, doi 10.1177/0091270012440282. Conditions: for Vd / clearance: in vivo, iv; for fraction unbound: plasma.
Data set [2] is described as follows: not given per row; by the article one of three: Lombardo et al. 2013, J Clin Pharmacol 53:178, doi 10.1177/0091270012440282; 'New Drugs at FDA', novel drug approvals for 2021 and 2022 (the article's reference 43); Yap, Li, Chen 2006, J Mol Graph Model 24:383, doi 10.1016. Conditions: human; for Vd / clearance: in vivo.

For the compound `O=c1ncnc2[nH][nH]cc1-2`, the values for the volume of distribution (Vd) in data set [1] (dog) and in data set [2] were 0.16 L/kg and 0.58 L/kg, respectively.
Consider `CC(C)(C)S(=O)(=O)CC(Cc1ccccc1)C(=O)NC(Cc1cnc[nH]1)C(=O)N[C@@H](CC1CCCCC1)[C@@H](O)[C@@H](O)C1CC1` (stereo not given in full), for which the Vd is 1.52 L/kg in data set [1] (dog), 1.7 L/kg in data set [1] (monkey), 4.4 L/kg in data set [1] (rat) and 0.77 L/kg in data set [2]. The clearance in data set [1] (dog) is 24.7 mL/min/kg; in data set [1] (monkey), 20 mL/min/kg; in data set [1] (rat), 119 mL/min/kg; in data set [2] it was 11.6 mL/min/kg. In addition, the fraction unbound in data set [1] (dog) was 0.0802; in data set [1] (monkey), 0.167; in data set [1] (rat), 0.053.
In the case of `CCCn1c(=O)[nH]c(=O)c2[nH]cnc21`, the Vd in data set [1] (dog) is 0.64 L/kg; in data set [1] (rat) it was 0.27 L/kg. The clearance in data set [1] (dog) is 2.4 mL/min/kg; in data set [1] (rat), 12 mL/min/kg; in data set [2], 4.16 mL/min/kg. The results for the fraction unbound in data set [1] (dog) and in data set [1] (rat) were 0.61 and 0.19, respectively.
Consider `[2H]C([2H])([2H])C([2H])([2H])C(C)n1ncn(-c2ccc(N3CCN(c4ccc(OC[C@H]5CO[C@](Cn6cncn6)(c6ccc(Cl)cc6Cl)O5)cc4)CC3)cc2)c1=O` (stereo not given in full), for which, in data set [1] (rat), the Vd is 5.07 L/kg, the clearance was 9.16 mL/min/kg and the fraction unbound is 0.9. In data set [2], the Vd was 7.4 L/kg and the clearance is 5.1 mL/min/kg.
On to `NNc1nncc2ccccc12`, for which the free fraction (fraction unbound) in data set [1] (dog) is 0.29. Moreover, the figures for the Vd in data set [1] (rat) and in data set [2] were 2.76 L/kg and 1.5 L/kg, respectively. In addition, the clearance was 139 mL/min/kg in data set [1] (rat) and 70.5 mL/min/kg in data set [2].
Regarding `COCCOCC(CC1(C(=O)NC2CCC(C(=O)O)CC2)CCCC1)C(=O)O` (stereo not given), the clearance was 5.8 mL/min/kg in data set [1] (dog), 15 mL/min/kg in data set [1] (rat) and 2.3 mL/min/kg in data set [2]. Also, the fraction unbound in data set [1] (rat) was 0.23. Besides, the Vd in data set [2] is 0.25 L/kg.
As to `C[C@@H](O[C@H]1OCCN(Cc2nc(=O)[nH][nH]2)[C@H]1c1ccc(F)cc1)c1cc(C(F)(F)F)cc(C(F)(F)F)c1`, the Vd in data set [1] (dog) was 1 L/kg; in data set [1] (rat), 3.2 L/kg; in data set [2], 0.94 L/kg. The fraction unbound in data set [1] (dog) was 0.0009; in data set [1] (rat), 0.002.
`CNC(C)C1CCC(N)C(OC2C(N)CC(N)C(OC3OCC(C)(O)C(NC)C3O)C2O)O1` (stereo not given): the Vd in data set [1] (dog) and in data set [1] (rat) was 0.33 L/kg throughout. Further, the clearance in data set [1] (dog) is 2.1 mL/min/kg; in data set [1] (rat) it was 7.8 mL/min/kg; in data set [2], 1 mL/min/kg.
Take `O=C(O)C1=C(C[n+]2ccc(CCS(=O)(=O)[O-])cc2)CS[C@@H]2C(NC(=O)C(NC(=O)c3nc[nH]c3C(=O)O)c3ccccc3)C(=O)N12` (stereo not given in full): the volume of distribution (Vd) was 0.2 L/kg in data set [1] (dog), 0.3 L/kg in data set [1] (monkey) and 0.21 L/kg in data set [2]. Also, the clearance was 0.6 mL/min/kg in data set [1] (dog), 3 mL/min/kg in data set [1] (monkey) and 1.7 mL/min/kg in data set [2]. Further, the fraction unbound in data set [1] (dog) was 0.07.
For the compound `CON=C(C(=O)NC1C(=O)N2C(C(=O)[O-])=C(Cn3cc[n+]4ncccc34)CS[C@H]12)c1nsc(N)n1` (stereo not given in full), the Vd in data set [1] (dog) was 0.2 L/kg; in data set [1] (monkey), 0.2 L/kg; in data set [1] (rat), 0.2 L/kg; in data set [2] it was 0.24 L/kg. Moreover, the clearance in data set [1] (dog) is 3 mL/min/kg; in data set [1] (monkey), 1.9 mL/min/kg; in data set [1] (rat), 9.4 mL/min/kg; in data set [2], 2.1 mL/min/kg. Moreover, the fraction unbound was 0.9 in data set [1] (dog), 0.9 in data set [1] (monkey) and 0.93 in data set [1] (rat).
For `[H]/N=C(/N=C(N)N)N(C)C`, in data set [1] (rat), the Vd is 0.54 L/kg and the clearance is 16.8 mL/min/kg. For the same compound, in data set [2], the volume of distribution (Vd) was 0.64 L/kg and the clearance is 7.4 mL/min/kg.
For the compound `CN(C)C1C(=O)C(C(N)=O)=C(O)[C@@]2(O)C(=O)C3=C(O)c4c(O)cccc4[C@@](C)(O)[C@H]3[C@H](O)[C@@H]12` (stereo not given in full), the figures for the Vd in data set [1] (dog) and in data set [2] were 1.01 L/kg and 1.7 L/kg, respectively. Also, the clearance is 1.47 mL/min/kg in data set [1] (dog) and 2 mL/min/kg in data set [2].
Turning to `C/N=C1/CN(O)C(c2ccccc2)=c2cc(Cl)ccc2=N1`, in data set [1] (rat), the volume of distribution (Vd) is 1.3 L/kg, the clearance was 7.8 mL/min/kg and the fraction unbound is 0.15. Also, the Vd in data set [2] is 0.25 L/kg.
For the compound `COc1ccccc1Oc1c(NS(=O)(=O)c2ccc(C(C)C)cn2)nc(-c2ccnc(-c3nn[nH]n3)c2)nc1OCCO`, the volume of distribution (Vd) was 0.21 L/kg in data set [1] (monkey) and 0.27 L/kg in data set [1] (rat). The figures for the clearance in data set [1] (monkey), in data set [1] (rat) and in data set [2] were 15.6 mL/min/kg, 4.3 mL/min/kg and 9.05 mL/min/kg, respectively.
`CON=C(C(=O)NC1C(=O)N2C(C(=O)O)=C(CSc3nc(=O)c(=O)[nH]n3C)CS[C@H]12)c1csc(N)n1` (stereo not given in full): the Vd in data set [1] (dog) was 0.25 L/kg; in data set [1] (monkey) it was 0.11 L/kg; in data set [1] (rat), 1 L/kg; in data set [2] it was 0.09 L/kg. Also, the clearance was 3.95 mL/min/kg in data set [1] (dog), 0.19 mL/min/kg in data set [1] (monkey), 20 mL/min/kg in data set [1] (rat) and 0.245 mL/min/kg in data set [2]. Moreover, the figures for the fraction unbound in data set [1] (dog), in data set [1] (monkey) and in data set [1] (rat) were 0.717, 0.0487 and 0.071, respectively.
Consider `CO[C@]1(NC(=O)Cc2cccs2)C(=O)N2C(C(=O)O)=C(COC(N)=O)CS[C@@H]21`, for which the clearance in data set [2] was 2.89 mL/min/kg.
`O=C1C=CC=CC1=C1NC(=C2C=CC=CC2=O)N(c2ccc(C(=O)O)cc2)N1`: in data set [1] (rat), the Vd is 0.46 L/kg and the clearance was 6.2 mL/min/kg. Moreover, in data set [2], the Vd is 0.2 L/kg and the clearance is 0.84 mL/min/kg.
With `OC[C@H]1CC[C@@H](n2cnc3c(O)ncnc32)O1`, in data set [2], the clearance is 15.2 mL/min/kg.
For `CSc1ccc(OCc2ncc([N+](=O)[O-])n2C)cc1`, the fraction unbound in data set [2] (plasma) is 0.02.
On to `CCN1CCC[C@@H]1CNC(=O)c1cc(S(=O)(=O)CC)ccc1OC`, for which, in data set [2], the clearance is 5.71 mL/min/kg.
Turning to `COc1ccccc1OCCNC[C@@H](O)COc1cccc2[nH]c3ccccc3c12`, the clearance in data set [2] was 8.7 mL/min/kg.
As for `CN=C1CN(O)C(c2ccccc2)=c2cc(Cl)ccc2=N1`, the distribution volume (Vd) in data set [2] is 0.25 L/kg.
As for `CC(=O)OCC(CCn1cnc2cnc(N)nc21)COC(C)=O`, the clearance in data set [2] is 8 mL/min/kg.
With `NC(=O)c1cnn([C@H]2O[C@@H](CO)[C@@H](O)[C@@H]2O)n1`, in data set [2], the clearance was 5 mL/min/kg.
As to `O=C(O)c1ccccc1Nc1cccc(C(F)(F)F)c1`, in data set [2], the clearance is 1.43 mL/min/kg.
In the case of `CN[C@H](C)[C@H](O)c1ccccc1`, the clearance in data set [2] is 7.33 mL/min/kg.
For the compound `O=[P@@]1(NCCCl)OCCCN1CCCl`, the clearance in data set [2] was 1.23 mL/min/kg.
Consider `C[C@@H]1CCC[C@@H](C)N1CCC[C@@](O)(c1ccccc1)c1ccccn1`, for which the clearance in data set [2] was 2.34 mL/min/kg.
With `C[C@H](CN1CC(=O)NC(=O)C1)N1CC(=O)NC(=O)C1`, the clearance in data set [2] is 4.42 mL/min/kg.
Take `COC(=O)C1[C@H](OC(=O)c2ccccc2)CC2CC[C@@H]1N2C` (stereo not given in full): the clearance in data set [2] is 32 mL/min/kg.
With `Nc1nc(NC2CC2)c2ncn([C@@H]3C=C[C@H](CO)C3)c2n1`, the clearance in data set [2] was 13.1 mL/min/kg.
